{"source": "patent US10543183B2", "about": "“Treatment and diagnosis of melanoma” (The Rockefeller University, priority 2012, dated 2020)", "key": {"[1]": {"system": "ApoE expression in human melanoma cells", "experiment": "ApoE mRNA expression by qRT-PCR in melanoma cells", "type": "cell-based", "conditions": "MeWo cells; 500 nM, 1 μM, or 2 μM for 48 hours", "method": "Total RNA was extracted from various cell lines using the miRvana kit (AM1560, Applied Biosystems, Austin, Tex.). The expression levels of mature miRNAs were quantified using the Taqman miRNA expression assay (4427975-0002228, Applied Biosystems). RNU44 was used as an endogenous control for normalization. For mRNA expression analyses, 600 ng of total RNA was reverse transcribed using the cDNA First-Strand Synthesis Kit (18080-051, Invitrogen), and roughly 200 ng of the resulting cDNA was then mixed with SYBR green PCR Master Mix (4309155, Applied Biosystems) and the appropriate primers. Each reaction was performed in quadruplicate, and mRNA expression was quantified by performing real-time PCR amplification using an ABI Prism 7900HT Real-Time PCR System (Applied Biosystems). GAPDH was used as an endogenous control for normalization. The following primers were used: […]\nRNA was extracted from whole cell lysates using the Total RNA Purification Kit (17200, Norgen, Thorold, Canada). 600 ng of total RNA was then reverse transcribed into cDNA using the cDNA First-Strand Synthesis Kit (18080-051, Invitrogen), and quantitative real-time PCR amplification was performed as previously described (Pencheva et al., 2012) using an ABI Prism 7900HT Real-Time PCR System (Applied Biosystems, Austin, Tex.). Each PCR reaction was carried out in quadruplicates. Gene expression was normalized to GAPDH, which was used as an endogenous control.\nFor every sample, 600 ng of RNA was reverse transcribed into cDNA using the cDNA First-Strand Synthesis kit (Invitrogen). Approximately 200 ng of cDNA was mixed with SYBR® green PCR Master Mix and the corresponding forward and reverse primers specific for detection of human ApoE. Each reaction was carried out in quadruplicates, and ApoE mRNA expression levels were measured by quantitative real-time PCR amplification using an ABI Prism 7900HT Real-Time PCR System (Applied Biosystems). The relative ApoE expression was determined using the ΔΔCt method. GAPDH was used as an endogenous control for normalization purposes."}, "[2]": {"system": "human melanoma cells (MeWo, MeWo-LM2, HT-144, SK-Mel-2, SK-Mel-334.2)", "experiment": "trans-well matrigel cell invasion assay, melanoma cells", "type": "cell-based", "conditions": "MeWo, HT-144, SK-Mel-2, SK-Mel-334.2; 1 μM for 72 hours", "method": "Cancer cells were serum-starved in 0.2% FBS DMEM-based media for 12 hours. Trans-well invasion chambers (354480, BD Biosciences, Bedford, Mass.) were pre-equilibrated prior to beginning the assay by adding 0.5 mL of starvation media to the top and bottom chambers. After 30 minutes, the media in the top chamber was removed, and 0.5 mL of media containing 1×10^5 cancer cells was added into each matrigel-coated trans-well insert and incubated at 37° C. for 24 hours. For neutralization antibody and/or recombinant protein experiments, antibody/recombinant protein was added to each well at the start of the assay at the following concentrations as indicated in the figures: 5-40 μg/mL anti-ApoE 1D7 (Heart Institute, University of Ottawa), 5-40 μg/mL anti-IgG (AB-108-C, R&D Systems, Minneapolis, Minn.), 100 μM recombinant human ApoE3 (4696, BioVision, Mountain View, Calif.), and 100 μM BSA (A2153, Sigma-Aldrich). Upon completion of the assay, matrigel-coated inserts were washed with PBS, the cells at the top side of each insert were scraped off, and the inserts were fixed in 4% paraformaldehyde for 15 minutes. The inserts were then cut out and mounted onto slides using VectaShield mounting medium containing DAPI (H-1000, Vector Laboratories, Burlingame, Calif.). The basal side of each insert was imaged using an inverted fluorescence microscope (Zeiss Axiovert 40 CFL) at 5× magnification, taking three representative images for each insert. The number of invaded cells was quantified using ImageJ (NIH).\nThe cell invasion assay was performed as previously described in detail (Pencheva et al., 2012) using a trans-well matrigel invasion chamber system (354480, BD Biosciences). In brief, various melanoma cells were cultured in the presence of DMSO, GW3965, T0901317, or Bexarotene at 1 μM for 56 hours, after which melanoma cells were switched to starvation media (0.2% FBS) for 16 hours in the presence of each drug. Following starvation, cells were seeded into matrigel-coated trans-well inserts, and the invasion assay was allowed to proceed for 24 hours at 37° C. For ApoE antibody neutralization experiments, 40 μg/mL 1D7 anti-ApoE blocking antibody (Heart Institute, University of Ottawa, Ottawa, Canada) or 40 μg/mL anti-IgG control antibody (AB-108-C, R&D Systems, Minneapolis, Minn.) was added to each trans-well insert at the start of the assay.\nThe cells were then serum starved for 16 hours in 0.2% FBS media in the presence of each corresponding drug or DMSO. Following serum starvation, the cells were subjected to the trans-well invasion assay using a matrigel invasion chamber system (354480, BD Biosciences). Invasion chambers were pre-equilibrated prior to the assay by adding 0.5 mL of starvation media to the top and bottom wells. Meanwhile, cancer cells were trypsinized and viable cells were counted using trypan blue. Cancer cells were then resuspended at a concentration of 2×10^5 cells/1 mL starvation media, and 0.5 mL of cell suspension, containing 1×10^5 cells, was seeded into each trans-well. The invasion assay was allowed to proceed for 24 hours at 37° C. […] Following fixation, the inserts were washed in PBS, cut out, and mounted onto slides using VectaShield mounting medium containing DAPI nuclear stain (H-1000, Vector Laboratories). The basal side of each insert was imaged using an inverted fluorescence microscope (Zeiss Axiovert 40 CFL) at 5× magnification, and the number of DAPI-positive cells was quantified using ImageJ."}, "[3]": {"system": "endothelial cells (HUVEC) recruited by human melanoma cells", "experiment": "trans-well endothelial recruitment assay", "type": "cell-based", "conditions": "MeWo, HT-144, SK-Mel-2, SK-Mel-334.2; 1 μM for 72 hours", "method": "5×10^4 cancer cells were seeded into 24-well plates approximately 24 hours prior to the start of the assay. HUVEC's were grown to 80% confluency and serum starved in EGM-2 media supplemented with 0.2% FBS for 16 hours. HUVEC's were then pulsed with Cell Tracker Red CMTPX dye (C34552, Invitrogen) for 45 minutes. Meanwhile, cancer cells were washed with PBS, 0.5 mL of 0.2% FBS EGM-2 media was added to each well, and a 3.0 μm HTS Fluoroblock insert (351151, BD Falcon, San Jose, Calif.) was placed into each well. 1×10^5 HUVEC's, resuspended in 0.5 mL of starvation media, were seeded into each trans-well insert, and the recruitment assay was allowed to proceed for 16-18 hours at 37° C. For neutralization antibody and/or recombinant protein experiments, antibody/protein was then added to each well at the appropriate concentration as indicated in the figures: 40 μg/mL anti-ApoE 1D7, 40 μg/mL anti-IgG, 100 μM rhApoE3, and 100 μM BSA. Upon completion of the assay, the inserts were processed and analyzed as described for the matrigel invasion assay above (See Matrigel Invasion Assay).\nThe endothelial recruitment assay was carried out as previously described (Pencheva et al., 2012; Png et al., 2012). Melanoma cells were treated with DMSO, GW3965, T0901317, or Bexarotene at 1 μM for 56 hours, after which 5×10^4 cells were seeded in a 24-well plate in the presence of each drug and allowed to attach for 16 hours prior to starting the assay. HUVEC cells were serum-starved overnight in EGM-2 media containing 0.2% FBS. The following day, 1×10^5 HUVEC cells were seeded into a 3.0 μm HTS Fluoroblock trans-well migration insert (351151, BD Falcon, San Jose, Calif.) fitted into each well containing cancer cells at the bottom. The HUVEC cells were allowed to migrate towards the cancer cells for 20 hours at 37° C., after which the inserts were processed as previously described (Pencheva et al., 2012). For ApoE antibody neutralization experiments, 40 μg/mL 1D7 anti-ApoE blocking antibody (Heart Institute, University of Ottawa, Ottawa, Canada) or 40 μg/mL anti-IgG control antibody (AB-108-C, R&D Systems, Minneapolis, Minn.) was added to each trans-well insert at the start of the assay.\nSubsequently, 5×10^4 cancer cells were seeded into 24-well plates in the presence of each drug or DMSO and allowed to attach for 16 hours prior to starting the assay. Human umbilical vein endothelial cells (HUVEC cells) were serum-starved in 0.2% FBS-containing media overnight. The following day, 1×10^5 HUVEC cells were seeded into a 3.0 μm HTS Fluoroblock insert (351151, BD Falcon) fitted into each well containing the cancer cells at the bottom. The HUVEC cells were allowed to migrate towards the cancer cells for 20 hours, after which the inserts were washed in PBS, fixed in 4% PFA, labeled with DAPI, and mounted on slides. The basal side of each insert was imaged using an inverted fluorescence microscope (Zeiss Axiovert 40 CFL) at 5× magnification, and the number of DAPI-positive cells was quantified using ImageJ."}, "melanoma cells": {"system": "melanoma cells", "experiment": "cell proliferation and viability assay", "type": "cell-based, human", "conditions": "MeWo, HT-144, SK-Mel-334.2; 1 μM, 5 days", "method": "To determine the effects of miR-199a or miR-1908 over-expression and combinatorial LNA-induced miRNA inhibition on cell proliferation, 2.5×10^4 cells were seeded in triplicate in 6-well plates, and viable cells were counted after 5 days. […] Viable cells were counted after 8, 24, 48, 72, and 120 hours.\nAfter 5 days, the number of viable and dead cells was counted using the trypan blue dye (72-57-1, Sigma-Aldrich), which selectively labels dead cells."}, "[4]": {"system": "B16F10 mouse melanoma cells", "experiment": "subcutaneous B16F10 tumor growth in mice", "type": "in vivo", "conditions": "50 mg/kg, i.p., daily", "method": "First, the cells were treated with 500 μg/mL DTIC for one week. Following this initial DTIC treatment, the remaining (˜10%) viable cells were allowed to recover for one week, after which 750 μg/mL of DTIC was added to the cell media for 5 days. Subsequent to this high-dose treatment, the cells were allowed to recover in the presence of low-dose DTIC (100 μg/mL) for one week. The cells were then continuously cultured in cell media containing 200 μg/mL DTIC for at least one month prior to grafting the cells into mice. DTIC was added to fresh cancer cell media every 3 days. […] DTIC was dissolved in the presence of citric acid (1:1 by weight) in water and administered daily by intraperitoneal injection."}, "[5]": {"system": "B16F10 mouse melanoma cells", "experiment": "subcutaneous B16F10 tumor growth in mice", "type": "in vivo", "conditions": "50 mg/kg, i.p., daily", "remark": "listed apart in the source"}}, "data": [{"smiles": "Fc1ccc(-c2c3cccc(C(F)(F)F)c3nn2Cc2ccc(F)cc2Cl)cc1", "note": "[LXR-623 3]", "values": [{"measurement": "ApoE expression induction", "setting": "[1]", "result": "varied degrees of ApoE expression induction"}]}, {"smiles": "C=C(c1ccc(C(=O)O)cc1)c1cc2c(cc1C)C(C)(C)CCC2(C)C", "note": "[bexarotene, reference compound]", "values": [{"measurement": "ability of melanoma cells to invade through matrigel", "setting": "[2]", "result": "suppressed invasion only in half of the melanoma lines tested"}, {"measurement": "ability of melanoma cells to recruit endothelial cells", "setting": "[3]", "result": "did not significantly affect"}, {"measurement": "cell proliferation or cell viability rates", "setting": "melanoma cells", "result": "did not affect"}]}, {"smiles": "CN(C)/N=N/c1[nH]cnc1C(N)=O", "note": "[dacarbazine, reference compound]", "values": [{"measurement": "tumor growth by B16F10 DTIC-resistant cells", "setting": "[4]", "result": "did not affect"}, {"measurement": "growth of DTIC-sensitive parental B16F10 line", "setting": "[5]", "result": "significantly suppressed"}]}]}
